The values that follow come from patent US12310365B2 (priority 2009, dated 2025).

Read-outs that look alike come from different tables or passages of the source.

Assay type in all cases: in vivo
In assay [1] the test system is Botrytis cinerea (Diethofencarb-resistant strain). Put plainly: Tomato gray mold preventive test (Diethofencarb-resistant strain). The following applies: Botrytis cinerea, topical, 48 h, read-out: Control value.
The subject of assay [2] is Pyricularia oryzae. The assay can be described thus: whole plant or invertebrate. The conditions noted are these: topical, 168 h, read-out: Control value.
Assay [3] concerns Pyricularia oryzae. The assay can be described thus: whole plant or invertebrate. The following applies: topical, 168 h, read-out: Control value. The source holds these as a separate data set.
The subject of assay [4] is Sphaerotheca fuliginea. The assay can be described thus: Cucumber powdery mildew preventive test. The following applies: Podosphaera fuliginea, topical, 168 h; treatment concentration 10 ppm.
For assay [5], the system named is Sphaerotheca fuliginea. Put plainly: Cucumber powdery mildew curative test. The following applies: Podosphaera fuliginea, topical, 168 h; treatment concentration 10 ppm.
Assay [6] concerns Phytophthora infestans. Put plainly: whole plant or invertebrate. The conditions noted are these: in Solanum lycopersicum, topical, 168 h, read-out: Control value.
Assay [7] concerns Phytophthora infestans. Put plainly: whole plant or invertebrate. The following applies: in Solanum lycopersicum, topical, 168 h, read-out: Control value. The source holds these as a separate data set.
For assay [8], the system named is Pseudoperonospora cubensis. The assay can be described thus: Cucumber downy mildew preventive test. The conditions noted are these: Pseudoperonospora cubensis, topical, 168 h; treatment concentration 10 ppm.
In assay [9] the test system is Pseudoperonospora cubensis. The assay can be described thus: Cucumber downy mildew curative test. The following applies: Pseudoperonospora cubensis, topical, 168 h, single ingredient, treatment concentration 10 ppm.

As for `CC1(C)N=C(c2cnc3ccccc3c2)c2ccccc2C1(F)F` [B, 3-(4,4-difluoro-3,3-dimethyl-3,4-dihydroisoquinolin-1-yl)quinoline], the pest or weed control at 10 ppm came to 83% in assay [1]; 83% with Pyricularia oryzae [2]; 86% in the assay with Pyricularia oryzae [3]; 60% in the assay with Sphaerotheca fuliginea [4]; 73% in the assay on Sphaerotheca fuliginea [5]; 0% with Phytophthora infestans [6]. Moreover, the pest or weed control at 10 ppm amounted to 0% in the assay with Phytophthora infestans [7], 28% in assay [8] and 33% in assay [9].

In the case of `CC1(C)N=C(c2cnc3ccccc3c2)c2cccc(F)c2C1(F)F` [C, 3-(4,4,5-trifluoro-3,3-dimethyl-3,4-dihydroisoquinolin-1-yl)quinoline], the pest or weed control at 10 ppm in assay [1] turned out to be 80%; in the assay with Sphaerotheca fuliginea [4], 65%; in the assay with Sphaerotheca fuliginea [5], 73%; in the assay with Phytophthora infestans [6] it was 0%; in the assay on Phytophthora infestans [7], 0%; in assay [8], 33%. In assay [9], this compound displayed a pest or weed control at 10 ppm of 33%.

Take `CC1(C)N=C(c2cnc3ccccc3c2)c2cccc(F)c2C1(C)C` [Compound A, 3-(5-fluoro-3,3,4,4-tetramethyl-3,4-dihydroisoquinolin-1-yl)quinoline]: the pest or weed control at 10 ppm in assay [1] was 83%; in the assay with Sphaerotheca fuliginea [4] it was 50%; in the assay on Sphaerotheca fuliginea [5], 67%; with Phytophthora infestans [6], 0%; with Phytophthora infestans [7], 0%; in assay [8] it was 20%. Also, the pest or weed control at 10 ppm in [9] stood at 17%.
